Experimental data reported in ChEMBL document CHEMBL3867422, “Design and synthesis of pyrimidinyl acyl thioureas as novel Hsp90 inhibitors in invasive ductal breast cancer and its bone metastasis” (Eur J Med Chem, 2016).

How the values were obtained:
[1] = target: Heat shock protein HSP 90-alpha (Homo sapiens) (UniProt P07900); assay: Inhibition of human His-tagged Hsp90 alpha N-terminal domain ATPase activity expressed in Escherichia coli BL21(DE3) at 3.125 uM assessed as ADP formation by pyruvate kinase/lactate dehydrogenase-coupled assay
[2] = target: Heat shock protein HSP 90-alpha (Homo sapiens) (UniProt P07900); assay: Inhibition of human His-tagged Hsp90 alpha N-terminal domain ATPase activity expressed in Escherichia coli BL21(DE3) at 6.25 uM assessed as ADP formation by pyruvate kinase/lactate dehydrogenase-coupled assay
[3] = target: Heat shock protein HSP 90-alpha (Homo sapiens) (UniProt P07900); assay: Inhibition of human His-tagged Hsp90 alpha N-terminal domain ATPase activity expressed in Escherichia coli BL21(DE3) at 12.5 uM assessed as ADP formation by pyruvate kinase/lactate dehydrogenase-coupled assay
[4] = target: Heat shock protein HSP 90-alpha (Homo sapiens) (UniProt P07900); assay: Inhibition of human His-tagged Hsp90 alpha N-terminal domain ATPase activity expressed in Escherichia coli BL21(DE3) at 50 uM assessed as ADP formation by pyruvate kinase/lactate dehydrogenase-coupled assay
[5] = target: Heat shock protein HSP 90-alpha (Homo sapiens) (UniProt P07900); assay: Inhibition of human His-tagged Hsp90 alpha N-terminal domain ATPase activity expressed in Escherichia coli BL21(DE3) at 25 uM assessed as ADP formation by pyruvate kinase/lactate dehydrogenase-coupled assay
[6] = target: Heat shock protein HSP 90-alpha (Homo sapiens) (UniProt P07900); assay: Inhibition of human His-tagged Hsp90 alpha N-terminal domain ATPase activity expressed in Escherichia coli BL21(DE3) at 100 uM assessed as ADP formation by pyruvate kinase/lactate dehydrogenase-coupled assay

Row | Structure (SMILES) | Activity [1] | Activity [2] | Activity [3] | Activity [4] | Activity [5] | Activity [6]
1 | CCn1cc(C(=O)NC(=S)Nc2cccc3ccccc23)c(-c2ccccc2)nc1=O | 75.5 nmol/min/mg | 49.5 nmol/min/mg | 36.1 nmol/min/mg | 13.2 nmol/min/mg | 24.4 nmol/min/mg | 8.19 nmol/min/mg
2 | CCn1cc(C(=O)NC(=S)Nc2ccc(Br)cc2)c(-c2ccccc2)nc1=O | 80.1 nmol/min/mg | 63.6 nmol/min/mg | 39.7 nmol/min/mg | 16.4 nmol/min/mg | 26.6 nmol/min/mg | 13.5 nmol/min/mg
3 | CCn1cc(C(=O)NC(=S)Nc2ccc(Cl)cc2)c(-c2ccccc2)nc1=O | 88.8 nmol/min/mg | 83.5 nmol/min/mg | 74.1 nmol/min/mg | 61 nmol/min/mg | 70.4 nmol/min/mg | 49.8 nmol/min/mg
4 | CCn1cc(C(=O)NC(=S)Nc2ccc(C(N)=O)cc2)c(-c2ccccc2)nc1=O | 93.5 nmol/min/mg | 87.1 nmol/min/mg | 73.4 nmol/min/mg | 51.1 nmol/min/mg | 64 nmol/min/mg | 37.5 nmol/min/mg
5 | CCn1cc(C(=O)NC(=S)Nc2ccc(C)cc2)c(-c2ccccc2)nc1=O | 90.2 nmol/min/mg | 80.5 nmol/min/mg | 72.9 nmol/min/mg | 43.4 nmol/min/mg | 55 nmol/min/mg | 33.1 nmol/min/mg
6 | CCn1cc(C(=O)NC(=S)Nc2ccc(OC)cc2)c(-c2ccccc2)nc1=O | 81.1 nmol/min/mg | 59.4 nmol/min/mg | 37.7 nmol/min/mg | 16.2 nmol/min/mg | 28.5 nmol/min/mg | 11.4 nmol/min/mg
7 | CCn1cc(C(=O)NC(=S)Nc2ccccc2C)c(-c2ccccc2)nc1=O | 93.5 nmol/min/mg | 85.7 nmol/min/mg | 70.9 nmol/min/mg | 38 nmol/min/mg | 50.1 nmol/min/mg | 28.9 nmol/min/mg
8 | CCn1cc(C(=O)NC(=S)NCc2ccccc2)c(-c2ccccc2)nc1=O | 90.2 nmol/min/mg | 80 nmol/min/mg | 75.1 nmol/min/mg | 50.2 nmol/min/mg | 61.2 nmol/min/mg | 35.9 nmol/min/mg
9 | CCn1cc(C(=O)NC(=S)Nc2ccc(F)cc2)c(-c2ccccc2)nc1=O | 92.6 nmol/min/mg | 84.1 nmol/min/mg | 72 nmol/min/mg | 38.2 nmol/min/mg | 53.1 nmol/min/mg | 27.6 nmol/min/mg
10 | CCn1cc(C(=O)NC(=S)Nc2ccccc2)c(-c2ccccc2)nc1=O | 85.3 nmol/min/mg | 70.3 nmol/min/mg | 60.8 nmol/min/mg | 32 nmol/min/mg | 40.4 nmol/min/mg | 26.1 nmol/min/mg
